Measurements published in US20050004179A1, “Methods and materials for treating, detecting, and reducing the risk of developing Alzheimer's Disease” (priority 2003, published 2005).

Experiments:
Tg2576 mice [1] = assay: Stress response: serum corticosterone after overnight fasting; format: in vivo, mouse; conditions: FIG. 5
Excerpt: (§1) Male Tg2576 mice and non-transgenic littermates were purchased from Taconic Farms (Germantown, N.Y.). The Tg2576 mice overexpress the 695-isoform of the human amyloid precursor protein containing a double mutation originally identified in a large Swedish kindred (familial AD); spatial learning and memory deficits are evident at 9-11 months of age, prior to the formation of mature amyloid plaques (Kawarabayashi et al., “Age-Dependent Changes in Brain, CSF, and Plasma Amyloid β Protein in the Tg2576 Transgenic Mouse Model of Alzheimer's Disease,” J. Neurosci., 21:372-381 (2001) and Westerman et al., “The Relationship Between Aβ and Memory in the Tg2576 Mouse Model of Alzheimer's Disease.,” J. Neurosci., 22:1858-1867 (2002), which are hereby incorporated by reference). Mice were individually housed in ventilated microisolator cages.
Corticosterone and insulin were measured using the following procedures. For serum preparation, tail bleedings were carried out under a heating lamp, and the blood was collected into MICROTAINER™ Brand Tubes (Becton Dickinson, Franklin Lanes, N.J.). After allowing the blood to clot for 30-40 min, samples were centrifuged for 90 sec at 6000 g and stored at −80° C. until use. Serum corticosterone levels were measured using an enzyme immunoassay kit (Assay Designs, Inc., Ann Arbor, Mich.) with a 1 μl aliquot of each sample diluted 1:100 with assay buffer. The sensitivity of the assay was 26.99 pg/ml. Serum insulin levels were determined using the Ultra Sensitive Rat Insulin ELISA kit (Crystal Chem, Inc., Downers Grove, Ill.) using 5 μl of undiluted sample and mouse insulin standard. The sensitivity of the assay under these conditions was 100 pg/ml. All samples were measured in duplicate for both assays. Plates were read using the Bio-Tek ELx800UV Universal Microplate Reader.
The following supplemented diet was used. Tablets of rosiglitazone maleate (Avandia™, GlaxoSmithKline) were provided by the Creighton University Diabetes Center. […]

Tg2576 mice [2] = assay: Insulin response: insulin-induced decline in blood glucose levels; format: in vivo, mouse
Excerpt: as §1
Insulin was administered and glucose was measured using the following procedures. A stock of human insulin (recombinant, 28.7 U.S.P. units/mg; Sigma) was prepared by dissolving 1 mg of powder in 1 ml of dH20 containing 1% glacial acetic acid. A 1:150 dilution in dH20 was used as the injection stock. Mice were administered the insulin solution by intraperitoneal injection. […]
Insulin was administered to non-fasted Tg2576 and wild-type mice at 0.75 U/kg, and blood glucose levels were monitored. […]

Tg2576 mice [3] = assay: Spatial learning and memory, 8-arm radial maze; conditions: 15 weeks on drug-supplemented diet, approximately 4 mg/kg/day, FIG. 6
[4] = Body weights and food consumption on rosiglitazone-supplemented diet (tolerability); format: in vivo, mouse
Excerpt: as §1
The following supplemented diet was used. Tablets of rosiglitazone maleate (Avandia™, GlaxoSmithKline) were provided by the Creighton University Diabetes Center. The tablets were pulverized and mixed with the AIN-93G purified rodent diet at a final dose of 30 mg/kg of food (Dyets, Inc.). This dose was chosen based on the results of studies in rats using a diet supplemented with rosiglitazone (Diep et al., “Structure, Endothelial Function, Cell Growth, and Inflammation in Blood Vessels of Angiotensin II-Infused Rats: Role of Peroxisome Proliferator-Activated Receptor-γ,” Circulation, 105:2296-2302 (2002), which is hereby incorporated by reference. Unmodified AIN-93G pellets were purchased as the control diet (Dyets, Inc.). The mice were placed on the diets at 9 months of age.
To provide evidence for a relationship between insulin resistance and aberrant stress responses of Tg2576 mice, the animals were subjected to a diet containing the thiazolidinedione, rosiglitazone, in order to increase insulin sensitivity. The thiazolidinediones act as agonists of peroxisome proliferator-activated receptor-γ (“PPARγ”), which is a ligand-inducible transcription factor that regulates glucose and lipid metabolism (Desvergne et al., “Peroxisome Proliferator-Activated Receptors: Nuclear Control of Metabolism,” Endocr. Rev., 20:649-688 (1999), which is hereby incorporated by reference). The agonists of PPARγ attenuate insulin resistance by improving peripheral insulin sensitivity, and such agonists are currently being used clinically in the management of type 2 diabetes (Wagstaff et al., “Rosiglitazone: A Review of its Use in the Management of Type 2 Diabetes Mellitus,” Drugs 62:1805-1837 (2002), which is hereby incorporated by reference). […] More particularly, the following Table 1 summarizes body weights and food consumption for wild-type mice on the regular diet (Wt; n=7), Tg2576 mice on the diet supplemented with rosiglitazone maleate (Tr, AV; n=7), and for Tg2576 mice on the regular diet (Tr, C; n=5). Data are reported as means and standard deviations for the indicated weeks.

Tg2576 mice [5] = format: in vivo
Excerpt: as §1
The following supplemented diet was used. Tablets of rosiglitazone maleate (Avandia™, GlaxoSmithKline) were provided by the Creighton University Diabetes Center. The tablets were pulverized and mixed with the AIN-93G purified rodent diet at a final dose of 30 mg/kg of food (Dyets, Inc.). […]

[6] = 10-month-old Tg2576 mice, supplemented diet 4 weeks

CN(CCOc1ccc(CC2SC(=O)NC2=O)cc1)c1ccccn1.O=C(O)/C=C\C(=O)O (centres unmarked) [rosiglitazone, rosiglitazone maleate]
Serum corticosterone levels after overnight fasting versus wild-type mice (Tg2576 mice [1]; [6]): not significantly different
Serum corticosterone levels following overnight fasting versus Tg2576 mice on regular diet (Tg2576 mice [1]; [6]): well below the levels reached in Tg2576 mice on the regular diet
Effect on stress response (figure legend) (Tg2576 mice [1]; Tg2576 mice): normalizes the stress response
Insulin response of Tg2576 mice on unsupplemented diet versus Tg2576 mice on supplemented diet (Tg2576 mice [2]; 10-month-old Tg2576 mice, 4 weeks on diet, insulin 0.75 U/kg): much weaker insulin response
Effect on insulin response (figure legend) (Tg2576 mice [2]; FIGS. 4A and 4B, Tg2576 mice, supplemented diet for 4 weeks): normalizes the insulin response
Number of reference memory errors versus control Tg2576 mice (Tr,C) (Tg2576 mice [3]): fewer than the number of reference memory errors made by Tg2576 not given the drug
Number of reference memory errors versus wild-type mice (Tg2576 mice [3]): as many reference memory errors as the wild-type mice
Tolerability of the diet containing rosiglitazone ([4]; mice, diet 30 mg/kg of food): well tolerated
Amount of rosiglitazone-supplemented food consumed over time ([4]; mouse, in vivo): decreased over time
Weight of mice, Week 1 ([4]; mouse, in vivo): 26.3 ± 3.2 g
Weight of mice, Week 4 ([4]; mouse, in vivo): 26.2 ± 3.1 g
Weight of mice, Week 7 ([4]; mouse, in vivo): 27.1 ± 3.3 g
Deaths in the course of the study (Tg2576 mice [5]; 7 Tg2576 mice on rosiglitazone-supplemented diet (2 of 7 on unsupplemented diet died)): None
Observed behaviour on handling (Tg2576 mice [5]; Tg2576 mice on rosiglitazone-supplemented diet): calmer and easier to handle
